Reference: PubChem BioAssay (NCI)
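Dose response: 5 concentrations. Exposure: 48 h. Format: 96-well plates. Endpoint: linear interpolation; highest concentration if not reached. Here, GI50 denotes the concentration required for 50% inhibition of growth. The concentration for full growth arrest is given as TGI.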

Assays:
Assay in all cases: DTP human tumour cell line panel, 48 h
[1] = tested on: 786-0 renal
[2] = tested on: A498 renal
[3] = tested on: ACHN renal
[4] = tested on: BT-549 breast
[5] = tested on: CAKI-1 renal
[6] = tested on: CCRF-CEM leukemia
[7] = tested on: COLO 205 colon
[8] = tested on: DU-145 prostate
[9] = tested on: EKVX NSCLC
[10] = tested on: HCC-2998 colon
[11] = tested on: HCT-116 colon
[12] = tested on: HCT-15 colon
[13] = tested on: HL-60(TB) leukemia
[14] = tested on: HOP-62 NSCLC
[15] = tested on: HOP-92 NSCLC
[16] = tested on: HS 578T breast
[17] = tested on: HT29 colon
[18] = tested on: IGROV1 ovarian
[19] = tested on: K-562 leukemia
[20] = tested on: KM12 colon
[21] = tested on: LOX IMVI melanoma
[22] = tested on: M14 melanoma
[23] = tested on: MALME-3M melanoma
[24] = tested on: MCF7 breast
[25] = tested on: MDA-MB-231 breast
[26] = tested on: MDA-MB-435
[27] = tested on: MOLT-4 leukemia
[28] = tested on: NCI-H226 lung
[29] = tested on: NCI-H23 lung
[30] = tested on: NCI-H460 lung
[31] = tested on: NCI-H522 lung
[32] = tested on: NCI/ADR-RES ovarian
[33] = tested on: OVCAR-3 ovarian
[34] = tested on: OVCAR-4 ovarian
[35] = tested on: OVCAR-5 ovarian
[36] = tested on: OVCAR-8 ovarian
[37] = tested on: PC-3 prostate
[38] = tested on: RPMI-8226 leukemia
[39] = tested on: RXF 393 renal
[40] = tested on: SF-268 CNS
[41] = tested on: SF-295 CNS
[42] = tested on: SF-539 CNS
[43] = tested on: SK-MEL-2 melanoma
[44] = tested on: SK-MEL-28 melanoma
[45] = tested on: SK-OV-3 ovarian
[46] = tested on: SN12C renal
[47] = tested on: SNB-19 CNS
[48] = tested on: SNB-75 CNS
[49] = tested on: SR leukemia
[50] = tested on: SW-620 colon
[51] = tested on: T-47D breast
[52] = tested on: TK-10 renal
[53] = tested on: U251 CNS
[54] = tested on: UACC-257 melanoma
[55] = tested on: UACC-62 melanoma
[56] = tested on: UO-31 renal

COc1cccc2c1C(=O)c1c(O)c3c(c(O)c1C2=O)C[C@@](O)(/C(CO)=N/NC(=O)CCCCCN1C(=O)C=CC1=O)C[C@@H]3O[C@H]1C[C@H](N)[C@H](O)[C@H](C)O1
GI50 [1]: 386 nM | TGI [1]: 9210 nM | GI50 [2]: 361 nM | TGI [2]: 2150 nM | GI50 [3]: 717 nM | TGI [3]: > 51500 nM | GI50 [4]: 1210 nM | TGI [4]: 8960 nM | GI50 [5]: 3600 nM | TGI [5]: 56400 nM | GI50 [6]: 334 nM | TGI [6]: > 100000 nM | GI50 [7]: 800 nM | TGI [7]: 10200 nM | GI50 [8]: 554 nM | TGI [8]: 38600 nM | GI50 [9]: 3100 nM | TGI [9]: > 75900 nM | GI50 [10]: 1500 nM | TGI [10]: > 58100 nM | GI50 [11]: 410 nM | TGI [11]: > 100000 nM | GI50 [12]: 7940 nM | TGI [12]: > 100000 nM | GI50 [13]: 800 nM | TGI [13]: 15500 nM | GI50 [14]: 674 nM | TGI [14]: 10500 nM | GI50 [15]: 270 nM | TGI [15]: 7010 nM | GI50 [16]: 1690 nM | TGI [16]: 9640 nM | GI50 [17]: 1370 nM | TGI [17]: 13200 nM | GI50 [18]: 1040 nM | TGI [18]: > 100000 nM | GI50 [19]: 825 nM | TGI [19]: > 52500 nM | GI50 [20]: 1980 nM | TGI [20]: > 100000 nM | GI50 [21]: 301 nM | TGI [21]: 3950 nM | GI50 [22]: 1060 nM | TGI [22]: 11000 nM | GI50 [23]: 395 nM | TGI [23]: 2230 nM | GI50 [24]: 147 nM | TGI [24]: > 100000 nM | GI50 [25]: 1960 nM | TGI [25]: 44000 nM | GI50 [26]: 2030 nM | TGI [26]: 13400 nM | GI50 [27]: 392 nM | TGI [27]: 28300 nM | GI50 [28]: 560 nM | TGI [28]: 3370 nM | GI50 [29]: 927 nM | TGI [29]: 5980 nM | GI50 [30]: 88.9 nM | TGI [30]: 1950 nM | GI50 [31]: 560 nM | TGI [31]: 4210 nM | GI50 [32]: > 100000 nM | TGI [32]: > 100000 nM | GI50 [33]: 1890 nM | TGI [33]: > 64400 nM | GI50 [34]: 2250 nM | TGI [34]: 22000 nM | GI50 [35]: 4040 nM | TGI [35]: > 100000 nM | GI50 [36]: 1140 nM | TGI [36]: 97400 nM | GI50 [37]: 1640 nM | TGI [37]: 19500 nM | GI50 [38]: 320 nM | TGI [38]: > 28200 nM | GI50 [39]: 984 nM | TGI [39]: 3850 nM | GI50 [40]: 648 nM | TGI [40]: 12400 nM | GI50 [41]: 404 nM | TGI [41]: 5560 nM | GI50 [42]: 734 nM | TGI [42]: 7820 nM | GI50 [43]: 1680 nM | TGI [43]: 5330 nM | GI50 [44]: 1610 nM | TGI [44]: 5670 nM | GI50 [45]: 1630 nM | TGI [45]: 36800 nM | GI50 [46]: 446 nM | TGI [46]: > 100000 nM | GI50 [47]: 465 nM | TGI [47]: 11400 nM | GI50 [48]: 368 nM | TGI [48]: 2990 nM | GI50 [49]: 109 nM | TGI [49]: > 100000 nM | GI50 [50]: 357 nM | TGI [50]: > 49000 nM | GI50 [51]: 490 nM | TGI [51]: 8410 nM | GI50 [52]: 1680 nM | TGI [52]: > 27400 nM | GI50 [53]: 325 nM | TGI [53]: 15800 nM | GI50 [54]: 1060 nM | TGI [54]: 4320 nM | GI50 [55]: 621 nM | TGI [55]: 3000 nM | GI50 [56]: 3470 nM | TGI [56]: 27900 nM
